Source: patent publication US20110053982A1, “ETHER BENZYLIDENE PIPERIDINE 5-MEMBERED ARYL CARBOXAMIDE COMPOUNDS USEFUL AS FAAH INHIBITORS” (PFIZER INC., priority 2008, published 2011)

Columns and labels:
Human FAAH = molecular target: T1, Human FAAH (Homo sapiens, UniProt O00519); assay: FAAH assay, kinetic analysis of irreversible inhibition (kinact/Ki); format: biochemical; conditions: additional data table, unit inferred, read-out: hFAAH_Kinact/Ki
T1 construct: made in house
T1 sequence (O00519 32-579 limits assumed): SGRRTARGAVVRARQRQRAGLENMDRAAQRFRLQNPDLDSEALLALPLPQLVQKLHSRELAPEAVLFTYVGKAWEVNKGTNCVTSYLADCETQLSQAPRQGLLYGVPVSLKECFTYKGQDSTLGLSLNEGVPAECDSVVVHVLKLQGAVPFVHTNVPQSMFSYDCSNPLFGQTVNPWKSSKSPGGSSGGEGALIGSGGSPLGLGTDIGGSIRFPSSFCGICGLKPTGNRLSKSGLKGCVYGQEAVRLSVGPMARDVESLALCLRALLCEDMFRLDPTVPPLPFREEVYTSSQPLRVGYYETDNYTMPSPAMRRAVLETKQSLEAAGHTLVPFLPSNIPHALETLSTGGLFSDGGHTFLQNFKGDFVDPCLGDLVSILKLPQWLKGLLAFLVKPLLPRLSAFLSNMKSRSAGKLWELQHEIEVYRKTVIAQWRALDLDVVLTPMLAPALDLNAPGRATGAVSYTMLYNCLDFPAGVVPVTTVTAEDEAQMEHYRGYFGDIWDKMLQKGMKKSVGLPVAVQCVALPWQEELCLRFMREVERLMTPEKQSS
Experimental: A FAAH assay may be carried out in 384-well clear polystyrene plates in a total volume of 50 μl per well. All percents are by volume. To each well is placed the reaction mixture (40 μl) containing 1-4 nM FAAH, 50 mM NaPi, pH 7.4, 3 mM α-ketoglutarate, 0.15 mM NADH, 7.5 U/ml glutamate dehydrogenase, 2 mM ADP, 1 mM EDTA, and 0.1% Triton X-100 (The concentration shown for each component is the final concentration in the assay). To this mixture is added 5 μl of a compound of Examples 1 to 20 at various concentrations prepared in 50% DMSO (or 5 μl 50% DMSO for controls). This is immediately followed by the addition of 5 μl oleamide (500 μM) dissolved in […] and the reaction mixture is mixed for 1.5 min. The final concentrations of DMSO and EtOH in the assay are each 7.5%. The reactions is then incubated at 30° C. and the absorbance at 340 nm is collected over a period of 90 min with readings taken in 30-second intervals using SpectraMax Plus^384 Microplate Spectrophotometer (Molecular Devices, Sunnyvale, Calif.). Human FAAH used in the assay is prepared as described in the patent application WO 2006/067613. The purity of the enzyme used is preferably greater than 98% based on an analysis by SDS-polyacrylamide gel electrophoresis followed by Coomassie Blue staining.
Initial velocity data (V) is obtained from the slopes of the initial progressive curves. They are plotted as a function of substrate concentration and fit to the Michaelis-Menten equation (1) using Prism (GraphPad Software, Inc., San Diego, Calif.) software to obtain Km and Vmax values.
To obtain potencies of irreversible inhibitors, progressive curves consistent with first order inhibition kinetics (two-step irreversible inhibition mechanism) are fit to equation (2) by nonlinear least squares regressions to determine kobs values at each inhibitor concentration, where [P]t is the absorbance at time t, V0 is a constant related to the steady state rate of the uninhibited reaction, and kobs is the first order rate constant for enzyme inactivation. The inhibitor dissociation constant (Ki) and the first order rate
constant of enzyme inactivation at infinite inhibitor concentration (kinact) are then obtained by fitting the kobs vs. [I] curves to equation (3).

rFAAH = molecular target: T2, rFAAH (Rattus norvegicus, UniProt P97612); assay: FAAH assay, rFAAH kobs/I; format: biochemical; conditions: additional data table, unit not given
T2 sequence (P97612 1-579): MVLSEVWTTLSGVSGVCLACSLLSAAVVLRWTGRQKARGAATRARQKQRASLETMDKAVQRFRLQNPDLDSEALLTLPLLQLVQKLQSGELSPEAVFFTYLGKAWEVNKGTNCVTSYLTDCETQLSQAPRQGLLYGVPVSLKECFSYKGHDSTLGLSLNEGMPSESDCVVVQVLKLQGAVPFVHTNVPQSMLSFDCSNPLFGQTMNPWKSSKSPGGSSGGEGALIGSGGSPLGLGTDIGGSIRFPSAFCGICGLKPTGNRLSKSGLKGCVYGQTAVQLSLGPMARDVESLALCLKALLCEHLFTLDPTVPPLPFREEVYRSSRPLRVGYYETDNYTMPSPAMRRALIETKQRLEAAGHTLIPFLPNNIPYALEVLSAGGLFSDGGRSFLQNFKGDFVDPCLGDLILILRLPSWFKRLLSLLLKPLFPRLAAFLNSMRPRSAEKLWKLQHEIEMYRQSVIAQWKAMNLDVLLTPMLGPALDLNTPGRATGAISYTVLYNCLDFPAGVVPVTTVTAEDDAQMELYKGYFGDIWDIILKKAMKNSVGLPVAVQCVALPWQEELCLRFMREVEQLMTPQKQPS

SMILES | kinact/KI (Human FAAH) [M⁻¹ s⁻¹] | FAAH_KINACTR:rFAAH:kobs/I (rFAAH)
Cc1noc(NC(=O)N2CCC(=Cc3cccc(OCCCC(F)(F)F)c3)CC2)c1C [N-(3,4-dimethylisoxazol-5-yl)-4-[3-(4,4,4-trifluorobutoxy)benzylidene]piperidine-1-carboxamide] | 12900 | 1540
Cc1noc(NC(=O)N2CCC(=Cc3cccc(OCCc4cccc(F)c4)c3)CC2)c1C [N-(3,4-dimethylisoxazol-5-yl)-4-{3-[2-(3-fluorophenyl)ethoxy]benzylidene}piperidine-1-carboxamide] | 12100 | 9280
Cc1cccc(OCCOc2cccc(C=C3CCN(C(=O)Nc4onc(C)c4C)CC3)c2)c1 [N-(3,4-dimethylisoxazol-5-yl)-4-{3-[2-(3-methylphenoxy)ethoxy]benzylidene}piperidine-1-carboxamide] | 13900 | 7840
Cc1noc(NC(=O)N2CCC(=Cc3cccc(OCCc4ccc(F)cc4)c3)CC2)c1C [N-(3,4-dimethylisoxazol-5-yl)-4-{3-[2-(4-fluorophenyl)ethoxy]benzylidene}piperidine-1-carboxamide] | 12800 | 7550
Cc1ncsc1CCOc1cccc(C=C2CCN(C(=O)Nc3onc(C)c3C)CC2)c1 [N-(3,4-dimethylisoxazol-5-yl)-4-{3-[2-(4-methyl-1,3-thiazol-5-yl)ethoxy]benzylidene}piperidine-1-carboxamide] | 4920 | 1920
Cc1oncc1NC(=O)N1CCC(=Cc2cccc(OC(C)Cc3ccccc3)c2)CC1 (centres unmarked) [N-(5-methylisoxazol-4-yl)-4-[3-(1-methyl-2-phenylethoxy)benzylidene]piperidine-1-carboxamide] | 2150 | 208
Cc1oncc1NC(=O)N1CCC(=Cc2cccc(OCC(C)CC(F)(F)F)c2)CC1 (centres unmarked) [N-(5-methylisoxazol-4-yl)-4-[3-(4,4,4-trifluoro-2-methylbutoxy)benzylidene]piperidine-1-carboxamide] | 3200 | <11.5
Cc1oncc1NC(=O)N1CCC(=Cc2cccc(OCCCC(F)(F)F)c2)CC1 [N-(5-methylisoxazol-4-yl)-4-[3-(4,4,4-trifluorobutoxy)benzylidene]piperidine-1-carboxamide] | 7410 | <10.0
Cc1oncc1NC(=O)N1CCC(=Cc2cccc(OCC3CCCCO3)c2)CC1 (centres unmarked) [N-(5-methylisoxazol-4-yl)-4-[3-(tetrahydro-2H-pyran-2-ylmethoxy)benzylidene]piperidine-1-carboxamide] | 646 | <11.3
Cc1cccc(OCCOc2cccc(C=C3CCN(C(=O)Nc4cnoc4C)CC3)c2)c1 [N-(5-methylisoxazol-4-yl)-4-{3-[2-(3-methylphenoxy)ethoxy]benzylidene}piperidine-1-carboxamide] | 10600 | 57.1
Cc1ncsc1CCOc1cccc(C=C2CCN(C(=O)Nc3cnoc3C)CC2)c1 [N-(5-methylisoxazol-4-yl)-4-{3-[2-(4-methyl-1,3-thiazol-5-yl)ethoxy]benzylidene}piperidine-1-carboxamide] | 903 | <11.9
O=C(Nc1cnoc1)N1CCC(=Cc2cccc(OCC3CCCCO3)c2)CC1 (centres unmarked) [N-isoxazol-4-yl-4-[3-(tetrahydro-2H-pyran-2-ylmethoxy)benzylidene]piperidine-1-carboxamide] | 384 | 18
Cc1ncsc1CCOc1cccc(C=C2CCN(C(=O)Nc3cnoc3)CC2)c1 [N-isoxazol-4-yl-4-{3-[2-(4-methyl-1,3-thiazol-5-yl)ethoxy]benzylidene}piperidine-1-carboxamide] | 514 | <10.0
